US5834487A, “Inhibition of 26S and 20S proteasome by indanones” (CV Therapeutics, priority 1996, dated 1998)

Each molecule was assayed against T1, 20S catalytic subunit of the proteasome (multicatalytic proteinase complex) (Bos taurus, UniProt Q32KL2) (assay: 20S proteasome chymotryptic activity, fluorogenic peptide cleavage). Conditions: 50 μM succinyl-leu-leu-val-tyr-7-amino-4-methyl coumarin, 15 minutes at 37° C, pH7.5.
T1 construct: was purified to homogeneity from bovine brain according to published methods; from tissue; host or cells: bovine brain
Assay type: biochemical, bovine
Description: Compounds of this invention prepared according to the method of Example 1 were tested as follows. The 20S catalytic subunit of the proteasome (also known as the multicatalytic proteinase complex) was purified to homogeneity from bovine brain according to published methods (Wilk S. and Orlowski, M, 40 842 J. Neurochem (1983)). The chymotryptic activity of the complex is measured by the increase in fluorescence following cleavage of the substrate peptide succinyl-leucine-leucine-valine-tyrosine-7-amino-4-methyl coumarin. The standard in vitro assay consists of 2 μg 20S proteasome, 0.1-100 μg/ml proteasome inhibitor in 200 μl 50 mM HEPES, containing 0.1% sodium dodecyl sulphate, pH7.5. The proteolytic reaction is initiated by the addition of 50 μM fluorogenic peptide substrate and allowed to progress for 15 minutes at 37° C. The reaction is terminated by the addition of 100 μl of 100 mM acetate buffer, pH4.0. The rate of proteolysis is directly proportional to the amount of liberated aminomethylcoumarin which is measured by fluorescent spectroscopy (EX 370 nm, EM 430 nm).

IC50 [µg/mL]	SMILES
> 10	COc1ccc2c(c1)C(CC(=O)NC(CC(C)C)C(=O)NC(CC(C)C)C(=O)NCCc1ccccc1)CC2=O (mixture of isomers) [Compound 185]
> 10	COc1ccc2c(c1)C(CC(=O)NC(CC(C)C)C(=O)NC(CC(=O)O)C(N)=O)CC2=O (mixture of isomers) [Compound 130]
> 10	COc1ccc2c(c1)C(CC(=O)NC(CC(C)C)C(=O)NC(CCC(=O)O)C(N)=O)CC2=O (mixture of isomers) [Compound 133]
10	COc1ccc2c(c1)C(CC(=O)NC(CC(N)=O)C(=O)NC(CC(C)C)C(N)=O)CC2=O (mixture of isomers) [Compound 95]
> 10	COc1ccc2c(c1)C(CC(=O)NC(CC(C)C)C(N)=O)CC2=O (mixture of isomers) [Compound 3]
> 10	COc1ccc2c(c1)C(CC(=O)NC(CC(C)C)C(=O)NC(CC(N)=O)C(N)=O)CC2=O (mixture of isomers) [Compound 131]
10	COc1ccc2c(c1)C(CC(=O)NC(CC(C)C)C(=O)NC(CC(C)C)C(=O)NCc1ccncc1)CC2=O (mixture of isomers) [Compound 192]
> 10	COc1ccc2c(c1)C(CC(=O)NC(Cc1ccc(O)cc1)C(=O)NC(CC(C)C)C(N)=O)CC2=O (mixture of isomers) [Compound 102]
> 10	COc1ccc2c(c1)C(CC(=O)NC(CC(C)C)C(=O)NC(CCCNC(=N)N)C(N)=O)CC2=O (mixture of isomers) [Compound 129]
> 10	COc1ccc2c(c1)C(CC(=O)NC(CC1CCCCC1)C(=O)NC(CC(C)C)C(N)=O)CC2=O (mixture of isomers) [Compound 13]
5	COc1ccc2c(c1)C(CC(=O)NC(CC(C)C)C(N)=O)CC2=O (mixture of isomers) [Compound 1]
> 10	COc1ccc2c(c1)C(CC(=O)NC(C(=O)NC(C(N)=O)C(C)C)C(C)C)CC2=O (mixture of isomers) [Compound 34]
> 10	COc1ccc2c(c1)C(CC(=O)NC(CC(C)C)C(=O)NCCC(C)C)CC2=O (mixture of isomers) [Compound 200]
> 10	COc1ccc2c(c1)C(CC(=O)N[C@@H](CC(C)C)C(=O)N[C@H](CC1CCCCC1)C(=O)NCC(N)=O)CC2=O (some centres unmarked) [Compound 89]
> 10	COc1ccc2c(c1)C(CC(=O)NC(CC(C)C)C(=O)NC(C)(C)C(N)=O)CC2=O (mixture of isomers) [Compound 28]
> 10	COc1ccc2c(c1)C(CC(=O)NC(CC(C)C)C(=O)NC(C)C(N)=O)CC2=O (mixture of isomers) [Compound 52]

IC50 [µg/mL]	SMILES
> 10	COc1ccc2c(c1)C(CC(=O)NC(CC(C)C)C(=O)NC(CC(C)C)C(=O)NCCO)CC2=O (mixture of isomers) [Compound 178]
> 10	COc1ccc2c(c1)C(CC(=O)NC(CC(C)C)C(=O)NCC(=O)NCC(N)=O)CC2=O (mixture of isomers) [Compound 41]
> 10	COc1ccc2c(c1)C(CC(=O)NC(Cc1c[nH]cn1)C(=O)NC(CC(C)C)C(N)=O)CC2=O (mixture of isomers) [Compound 99]
> 10	COc1ccc2c(c1)C(CC(=O)NC(Cc1ccccc1)C(=O)NC(CC(C)C)C(=O)NCC(N)=O)CC2=O (mixture of isomers) [Compound 45]
> 10	COc1ccc2c(c1)C(CC(=O)NC(CC(C)C)C(=O)NC(CC(C)C)C(N)=O)CC2=O (mixture of isomers) [Compound 6]
> 10	COc1ccc2c(c1)C(CC(=O)NC(CC(C)C)C(=O)NC(CC(C)C)C(=O)NC(C)C(N)=O)CC2=O (mixture of isomers) [Compound 126]
> 10	COc1ccc2c(c1)C(CC(=O)NC(CO)C(=O)NC(CC(C)C)C(N)=O)CC2=O (mixture of isomers) [Compound 61]
> 10	CCCCC(NC(=O)CC1CC(=O)c2ccc(OC)cc21)C(=O)NC(CC(C)C)C(N)=O (mixture of isomers) [Compound 23]
> 10	COc1ccc2c(c1)C(CC(=O)NC(CC(C)C)C(=O)NC(CC(C)C)C(=O)N1CCOCC1)CC2=O (mixture of isomers) [Compound 174]
> 10	COc1ccc2c(c1)C(CC(=O)NC(C(=O)NC(CC(C)C)C(=O)NCC(N)=O)C(C)C)CC2=O (mixture of isomers) [Compound 47]
> 10	CCCC(NC(=O)CC1CC(=O)c2ccc(OC)cc21)C(=O)NC(CC(C)C)C(N)=O (mixture of isomers) [Compound 57]
> 10	COc1ccc2c(c1)C(CC(=O)NC(CCC(N)=O)C(=O)NC(CC(C)C)C(N)=O)CC2=O (mixture of isomers) [Compound 98]
> 10	COc1ccc2c(c1)C(CC(=O)NC(CC(C)C)C(=O)NC(Cc1c[nH]c3ccccc13)C(N)=O)CC2=O (mixture of isomers) [Compound 136]
> 10	CCCC(NC(=O)CC1CC(=O)c2ccc(OC)cc21)C(=O)NC(CC(C)C)C(=O)NCC(N)=O (mixture of isomers) [Compound 44]
> 10	COc1ccc2c(c1)C(CC(=O)N[C@@H](CC(C)C)C(=O)N[C@H](Cc1ccccc1)C(=O)NCC(N)=O)CC2=O (some centres unmarked) [Compound 88]

The next lines start with the molecule.

SMILES	IC50 [µg/mL]
COc1ccc2c(c1)C(CC(=O)Nc1ccccc1)CC2=O (racemic) [Compound 168]	> 50
COc1ccc2c(c1)C(CC(=O)NC1CCC1)CC2=O (centres unmarked) [Compound 69]	> 10
COc1ccc2c(c1)C(CC(=O)Nc1nc(O)c(C)c(O)n1)CC2=O (centres unmarked) [Compound 145]	> 10
COc1ccc2c(c1)C(CC(=O)NCCO)CC2=O (centres unmarked) [Compound 84]	> 10
COc1ccc2c(c1)C(CC(=O)NC(CC(C)C)C(=O)NC(CC(C)C)C(=O)NC13CC4CC(CC(C4)C1)C3)CC2=O (mixture of isomers) [Compound 190]	> 10
COc1ccc2c(c1)C(CC(=O)N(C(C)C)C(C)C)CC2=O (centres unmarked) [Compound 62]	> 10
COc1ccc2c(c1)C(CC(=O)Nc1cccc(I)c1)CC2=O (centres unmarked) [Compound 82]	> 10
COc1ccc2c(c1)C(CC(=O)NC(CC(C)C)C(=O)NC(CC(C)C)C(=O)N(C)Cc1ccccc1)CC2=O (mixture of isomers) [Compound 179]	> 10
COc1ccc2c(c1)C(CC(=O)Nc1nc(C)cc(Cl)n1)CC2=O (racemic) [Compound 155]	> 10
COc1ccc2c(c1)C(CC(=O)N1C(C)CCCC1C)CC2=O (centres unmarked) [Compound 75]	> 10
COc1ccc2c(c1)C(CC(=O)N(Cc1ccccc1)Cc1ccccc1)CC2=O (centres unmarked) [Compound 39]	> 10
COCCN(CCOC)C(=O)CC1CC(=O)c2ccc(OC)cc21 (centres unmarked) [Compound 79]	> 10
COc1ccc2c(c1)C(CC(=O)NCc1ccc3c(c1)OCO3)CC2=O (centres unmarked) [Compound 80]	> 10
COc1ccc2c(c1)C(CC(=O)Nc1ccccc1)CC2=O (centres unmarked) [Compound 122]	> 10
COc1ccc2c(c1)C(CC(=O)NCCCCCCN)CC2=O (centres unmarked) [Compound 150]	> 10
COc1ccc2c(c1)C(CC(=O)NC(CO)C(O)c1ccccc1)CC2=O (centres unmarked) [Compound 118]	> 10

SMILES	IC50 [µg/mL]
COc1ccc2c(c1)C(CC(=O)N1CCC(O)C1)CC2=O (centres unmarked) [Compound 109]	> 10
CCCCCCCNC(=O)CC1CC(=O)c2ccc(OC)cc21 (centres unmarked) [Compound 70]	> 10
COc1ccc2c(c1)C(CC(=O)Nc1ccnc(S)n1)CC2=O (racemic) [Compound 158]	> 10
COc1ccc2c(c1)C(CC(=O)NCc1ccccc1)CC2=O (centres unmarked) [Compound 38]	> 10
COc1ccc2c(c1)C(CC(=O)N1CCCC1CO)CC2=O (mixture of isomers) [Compound 164]	> 50
COc1ccc2c(c1)C(CC(=O)NCC(=O)NCC(=O)NCC(N)=O)CC2=O (centres unmarked) [Compound 40]	> 10
COc1ccc2c(c1)C(CC(=O)N1CCc3ccccc31)CC2=O (centres unmarked) [Compound 77]	> 10
COc1ccc2c(c1)C(CC(=O)NCCCc1ccccc1)CC2=O (centres unmarked) [Compound 66]	> 10
COc1ccc2c(c1)C(CC(=O)NC1CCCC1)CC2=O (centres unmarked) [Compound 74]	> 10
COc1ccc2c(c1)C(CC(=O)N(C)C)CC2=O (centres unmarked) [Compound 78]	> 10
COc1ccc2c(c1)C(CC(=O)NC(Cc1ccccc1)C(N)=O)CC2=O (mixture of isomers) [Compound 12]	> 10
COc1ccc2c(c1)C(CC(=O)NC(CO)C(O)c1ccccc1)CC2=O (mixture of isomers) [Compound 165]	> 50
COc1ccc2c(c1)C(CC(=O)N(C)Cc1ccccc1)CC2=O (centres unmarked) [Compound 73]	> 10
COc1ccc2c(c1)C(CC(=O)Nc1ccc(I)cc1)CC2=O (racemic) [Compound 152]	> 10
COc1ccc2c(c1)C(CC(=O)NC(CC(C)C)C(=O)N(Cc1ccccc1)Cc1ccccc1)CC2=O (mixture of isomers) [Compound 199]	> 10
